Data as given in US4173629A, “Antibiotic S 31794/F-1” (Sandoz Ltd., priority 1975, dated 1979).
Converted amounts (≈) assume the structure as drawn. *1 amine or outer side, *2 acyl side, *3 side chain or, on linkers, in order; H or OH if unused. Where a SMILES comes first, the peptide text is derived from it. Bridges are numbered along the chain shown (N, C = ends). [ ]: non-standard residue; d: D form. The star is where a group is joined. Orn(4R-OH,5R-OH) = O=C([C@H](C[C@@H](O)[C@@H](O)N[*:3])N[*:1])[*:2]; hTyr(3S-OH,4S-OH) = N[C@H](C(=O)O)[C@H](O)[C@@H](O)c1ccc(O)cc1; Pro(3S-OH,4S-Me) = C[C@H]1CN[C@H](C(=O)O)[C@H]1O; Gln(3R-OH) = NC(=O)C[C@@H](O)[C@H](N)C(=O)O; Hyp = O=C(O)[C@@H]1C[C@@H](O)CN1; Myristoyl = CCCCCCCCCCCCCC(=O)*

Legend:
Blastomyces dermatitidis = experiment: MIC, series dilution test; assay type: cell-based; conditions: malt extract medium (2%), pH 5.2-5.4, 27° C., 48 to 72 hours
Method: (§1) The MIC (minimum inhibiting concentration) values are obtained in the well known series dilution test. The incubation was effected in a malt extract medium (2%) having a pH of 5.2-5.4 at 27° C. for 48 to 72 hours. The test strains are well known and have been deposited in the fungi collection of the firm Sandoz, Basel, where they are available for examination.

Aspergillus fumigatus = experiment: MIC, series dilution test; assay type: cell-based; conditions: malt extract medium (2%), pH 5.2-5.4, 27° C., 48 to 72 hours
Method: as §1

Candida albicans H 12 = experiment: MIC, series dilution test; assay type: cell-based; conditions: malt extract medium (2%), pH 5.2-5.4, 27° C., 48 to 72 hours
Method: as §1

Neurospora crassa = experiment: MIC, series dilution test; assay type: cell-based; conditions: malt extract medium (2%), pH 5.2-5.4, 27° C., 48 to 72 hours
Method: as §1

Candida albicans 439 = experiment: MIC, series dilution test; assay type: cell-based; conditions: malt extract medium (2%), pH 5.2-5.4, 27° C., 48 to 72 hours
Method: as §1

Microsporum canis = experiment: MIC, series dilution test; assay type: cell-based; conditions: malt extract medium (2%), pH 5.2-5.4, 27° C., 48 to 72 hours
Method: as §1

Candida tropicalis = experiment: MIC, series dilution test; assay type: cell-based; conditions: malt extract medium (2%), pH 5.2-5.4, 27° C., 48 to 72 hours
Method: as §1

Curvularia lunata = experiment: MIC, series dilution test; assay type: cell-based; conditions: malt extract medium (2%), pH 5.2-5.4, 27° C., 48 to 72 hours
Method: as §1

Aspergillus niger = experiment: MIC, series dilution test; assay type: cell-based; conditions: malt extract medium (2%), pH 5.2-5.4, 27° C., 48 to 72 hours
Method: as §1

Trichophyton quinckeanum = experiment: MIC, series dilution test; assay type: cell-based; conditions: malt extract medium (2%), pH 5.2-5.4, 27° C., 48 to 72 hours
Method: as §1

Candida albicans 5897 = experiment: MIC, series dilution test; assay type: cell-based; conditions: malt extract medium (2%), pH 5.2-5.4, 27° C., 48 to 72 hours
Method: as §1

Candida krusei = experiment: MIC, series dilution test; assay type: cell-based; conditions: malt extract medium (2%), pH 5.2-5.4, 27° C., 48 to 72 hours
Method: as §1

Candida albicans = experiment: MIC, series dilution test; assay type: cell-based; conditions: malt extract medium (2%), pH 5.2-5.4, 27° C., 48 to 72 hours
Method: as §1

Candida tropicalis CK 4 = experiment: MIC, series dilution test; assay type: cell-based; conditions: malt extract medium (2%), pH 5.2-5.4, 27° C., 48 to 72 hours
Method: as §1

Sporotrichum schenkii = experiment: MIC, series dilution test; assay type: cell-based; conditions: malt extract medium (2%), pH 5.2-5.4, 27° C., 48 to 72 hours
Method: as §1

[1] = system: Candida albicans Blast. res.; experiment: MIC, series dilution test; assay type: cell-based; conditions: malt extract medium (2%), pH 5.2-5.4, 27° C., 48 to 72 hours
Method: as §1

[2] = system: Trichophyton mentagrophytes; experiment: MIC, series dilution test; assay type: cell-based; conditions: malt extract medium (2%), pH 5.2-5.4, 27° C., 48 to 72 hours
Method: as §1

[3] = system: yeast and fungi, particularly Candida strains; experiment: activity spectrum, yeast and fungi; assay type: cell-based
Method: as §1

Solubility = assay type: physicochemical
Stability = assay type: physicochemical
[4] = system: usual gram-positive and gram-negative bacteria; experiment: activity spectrum, bacteria; assay type: cell-based

CCCCCCCCCCCCCC(=O)N[C@H]1C[C@@H](O)[C@@H](O)NC(=O)[C@@H]2[C@@H](O)[C@@H](C)CN2C(=O)[C@H]([C@H](O)CC(N)=O)NC(=O)[C@H]([C@H](O)[C@@H](O)c2ccc(O)cc2)NC(=O)[C@@H]2C[C@@H](O)CN2C(=O)[C@H]([C@@H](C)O)NC1=O [S 31794/F-1] (Myristoyl-[Orn(4R-OH,5R-OH)]T[Hyp][hTyr(3S-OH,4S-OH)][Gln(3R-OH)][Pro(3S-OH,4S-Me)]; lactam 1-C)
MIC (minimum inhibiting concentration) (Blastomyces dermatitidis): 100 µg/mL (≈ 95.1 µM)
MIC (minimum inhibiting concentration) (Aspergillus fumigatus): 32 µg/mL (≈ 30.4 µM)
MIC (minimum inhibiting concentration) (Candida albicans H 12): 0.3 µg/mL (≈ 0.285 µM)
MIC (minimum inhibiting concentration) (Neurospora crassa): > 100 µg/mL
MIC (minimum inhibiting concentration) (Candida albicans 439): 0.03 µg/mL (≈ 0.0285 µM)
MIC (minimum inhibiting concentration) (Microsporum canis): 100 µg/mL (≈ 95.1 µM)
MIC (minimum inhibiting concentration) (Candida tropicalis): 0.3 µg/mL (≈ 0.285 µM)
MIC (minimum inhibiting concentration) (Curvularia lunata): > 100 µg/mL
MIC (minimum inhibiting concentration) (Aspergillus niger): 100 µg/mL (≈ 95.1 µM)
MIC (minimum inhibiting concentration) (Trichophyton quinckeanum): > 100 µg/mL
MIC (minimum inhibiting concentration) (Candida albicans 5897): 0.3 µg/mL (≈ 0.285 µM)
MIC (minimum inhibiting concentration) (Candida krusei): 1 µg/mL (≈ 0.951 µM)
MIC (minimum inhibiting concentration) (Candida albicans): 0.3 µg/mL (≈ 0.285 µM)
MIC (minimum inhibiting concentration) (Candida tropicalis CK 4): 0.01 µg/mL (≈ 0.00951 µM)
MIC (minimum inhibiting concentration) (Sporotrichum schenkii): > 100 µg/mL
MIC (minimum inhibiting concentration) [1]: 0.03 µg/mL (≈ 0.0285 µM)
MIC (minimum inhibiting concentration) [2]: 32 µg/mL (≈ 30.4 µM)
effect against yeast and fungi, particularly against Candida strains [3]: pronounced effect
Solubility (Solubility; in methanol, ethanol, pyridine and dimethyl sulphoxide): easily soluble
Solubility (Solubility; in water, chloroform, ethyl acetate, diethyl ether, benzene and hexane): difficulty soluble
Stability (Stability; alkaline or strong acidic conditions): decomposes, losing its anti-fungal activity
Stability (Stability; aqueous methanol at pH 3-7.5): stable
effect against the usual gram-positive and gram-negative bacteria [4]: does not exhibit a significant effect
